Experimental data as given in patent US7645740B2, “Peptide sequence found in Laminin 5 for treating skin impairments” (Laboratoires d'Anjou Centre National de la Recherche …, priority 2004, dated 2010).

System: NHKs
Test: Cell adhesion of NHKs to peptide co-immobilized with collagen IV
Type: cell-based, human
Details: collagen IV fixed quantity 0.06 mg, 50,000 cells per well, percentage of COL4 alone
Experimental: Peptides 1, 2 and 3 (variable quantities indicated) and collagen IV (fixed quantity 0.06 mg) were co-immobilized in 96-well plates. 5×104 NHKs were deposited in each well and plates were incubated at 37° C. for 1 hour. After washing, attached cells were fixed and cell adhesion was measured as described in the methodology section. Cell adhesion in the presence of the peptide is given as a percentage of cell adhesion obtained with collagen IV alone. Cells were observed by phase contrast microscopy then photographed. Bar=50 μm.
A decreasing range of LN5 (prepared in the laboratory) and COL4 (BD Biosciences, Le Pont de Claix, France) quantities was made up by successive dilution in PBS. These solutions were immediately distributed into a 96-well culture plate (Costar) at a rate of 100 μl per well. The experiment was conducted in exactly the same way as the experiment described in example 2. The results are given in the form of a graph with the absorbance values representing adhesion on the ordinate and the various substrate concentrations on the abscissa. […]
In order to analyse the effect of the peptide on cell adhesion to DEJ proteins, peptide TALRIRATYGEY (SEQ ID NO.1) (peptide 1) was co-immobilized with LN5 (FIG. 14) and COL4 (FIG. 15). The fixed quantity of matrix protein (LN5 and COL4) and the variable quantity of peptide are given on the graph (FIGS. 14 and 15). […]

TALRIRATYGEY (Human laminin 5) [Peptide 1]
effect on adhesion of keratinocytes to COL4 (co-immobilized): no significant effect
